Experimental data as given in patent US9815787B2, “Sulfonamide derivative or pharmaceutically acceptable acid addition salt thereof” (UNIVERSITY OF TSUKUBA, priority 2013, dated 2017).

Target: T1, OX2R (Homo sapiens, UniProt O43614)
T1 construct: expressed in transfected cells; host or cells: CHO (Chinese hamster ovary) cells constitutively expressing the OX2R gene and NFAT-luciferase (CHOOX2R)
T1 sequence (O43614 1-444): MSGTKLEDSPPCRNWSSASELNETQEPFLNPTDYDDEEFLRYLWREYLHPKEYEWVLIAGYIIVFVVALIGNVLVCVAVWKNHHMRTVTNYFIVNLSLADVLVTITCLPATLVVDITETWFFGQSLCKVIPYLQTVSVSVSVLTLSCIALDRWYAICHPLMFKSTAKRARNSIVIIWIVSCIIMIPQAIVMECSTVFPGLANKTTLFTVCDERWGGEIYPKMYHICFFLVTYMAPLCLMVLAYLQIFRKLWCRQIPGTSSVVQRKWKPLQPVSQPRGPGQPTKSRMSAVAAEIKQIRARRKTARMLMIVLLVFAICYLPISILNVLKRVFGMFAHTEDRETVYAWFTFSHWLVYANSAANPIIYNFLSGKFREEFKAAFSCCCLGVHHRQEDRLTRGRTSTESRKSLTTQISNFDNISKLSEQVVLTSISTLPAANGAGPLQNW
Assay: Evaluation of agonist activity against OX2R (CHOOX2R cells, Fura2AM fluorescence, FDSS3000)
Format: cell-based
Protocol: Evaluation of Agonist Activity Against OX2R
NFAT-luciferase gene and OX2R gene were each constitutively expressed in CHO cell, which is a cell line derived from Chinese hamster ovary to establish a cell line (CHOOX2R). The cells thereof were sown on a 96 well plate at 10000 cells/well, and cultured in a 5% FBS-added DMEM medium for 48 hr. […] After washing, HEPES buffer (75 μL) was added, a test compound solution (25 μL) was added, and changes in the fluorescence intensity were measured by FDSS3000 (Hamamatsu Photonics K.K.). The test compound was dissolved in DMSO (final concentration of DMSO was 1%), and diluted with HEPES buffer to a final concentration of 0.1 μM, 1.0 μM or 10 μM.

[1] = test compound 0.1 μM; relative to orexin-A as full agonist (100%); CHOOX2R cells
[2] = test compound 1.0 μM; relative to orexin-A as full agonist (100%); CHOOX2R cells
[3] = test compound 10 μM; relative to orexin-A as full agonist (100%); CHOOX2R cells
[4] = OX2R agonist activity; CHOOX2R cells
[5] = conversion with orexin-A as full agonist (maximum agonist activity 100%)
[6] = test compound 0.1 μM; CHOOX2R cells; relative to orexin-A as full agonist (100%)
[7] = test compound 1.0 μM; CHOOX2R cells; relative to orexin-A as full agonist (100%)
[8] = test compound 10 μM; CHOOX2R cells; relative to orexin-A as full agonist (100%)

COc1ccccc1C(=O)NCCNc1cccc(NS(=O)(=O)c2cc(-c3cccc(C(=O)N(C)C)c3)ccc2F)c1 [Example 107, 4′-fluoro-3′-(N-(3-((2-(2-methoxybenzamido)ethyl)amino)phenyl)sulfamoyl)-N,N-dimethyl-[1,1′-biphenyl]-3-carboxamide]
Response (0.1 μM (%)) [1]: 65%
Response (1.0 μM (%)) [2]: 79%
Response (10 μM (%)) [3]: 82%

COc1ccccc1C(=O)NCCNc1cccc(NS(=O)(=O)c2cc(-c3cccc(C(=O)N4CCC4)c3)ccc2OC)c1 [Example 81, N-(2-((3-(3′-(azetidine-1-carbonyl)-4-methoxy-[1,1′-biphenyl]-3-ylsulfonamido)phenyl)amino)ethyl)-2-methoxybenzamide]
EC50 [4]: 365 nM
Emax [5]: 85%
Response (0.1 μM (%)) [6]: 75%
Response (1.0 μM (%)) [7]: 98%
Response (10 μM (%)) [8]: 98%

COc1ccc(-c2cccc(C(=O)N(C)C)c2)cc1S(=O)(=O)Nc1cccc(NCCNC(=O)c2cn(C)cn2)c1 [Example 64, N-(2-((3-(3′-(dimethylcarbamoyl)-4-methoxy-[1,1′-biphenyl]-3-ylsulfonamido)phenyl)amino)ethyl)-1-methyl-1H-imidazole-4-carboxamide]
Response (0.1 μM (%)) [6]: <5%
Response (1.0 μM (%)) [7]: 68%
Response (10 μM (%)) [8]: 72%

COc1ccccc1C(=O)NCCNc1cccc(NS(=O)(=O)c2cc(-c3cccc(NCC(C)C)c3)ccc2OC)c1 [Example 38, N-(2-((3-(3′-(isobutylamino)-4-methoxy-[1,1′-biphenyl]-3-ylsulfonamide)phenyl)amino)ethyl)-2-methoxybenzamide]
Response (0.1 μM (%)) [6]: 8%
Response (1.0 μM (%)) [7]: 37%
Response (10 μM (%)) [8]: 113%

COc1ccccc1C(=O)NCCN(C)c1cccc(NS(=O)(=O)c2cc(-c3cccc(C(=O)N(C)C)c3)ccc2OC)c1 [Example 112, 4′-methoxy-3′-(N-(3-((2-(2-methoxybenzamido)ethyl) (methyl)amino)phenyl)sulfamoyl)-N,N-dimethyl-[1,1′-biphenyl]-3-carboxamide]
Response (0.1 μM (%)) [1]: <5%
Response (1.0 μM (%)) [2]: 131%
Response (10 μM (%)) [3]: 139%

COc1cccc(C(=O)NCCNc2cccc(NS(=O)(=O)c3cc(-c4cccc(C(=O)N5CCC5)c4)ccc3OC)c2)n1 [Example 83, N-(2-((3-(3′-(azetidine-1-carbonyl)-4-methoxy-[1,1′-biphenyl]-3-ylsulfonamido)phenyl)amino)ethyl)-6-methoxypicolinamide]
Response (0.1 μM (%)) [6]: <5%
Response (1.0 μM (%)) [7]: 10%
Response (10 μM (%)) [8]: 71%

COc1ccccc1C(=O)NCCNc1cccc(NS(=O)(=O)c2cc(-c3cccc(C(=O)NCC(F)(F)F)c3)ccc2OC)c1 [Example 78, 4′-methoxy-3′-(N-(3-((2-(2-methoxybenzamido)ethyl)amino)phenyl)sulfamoyl)-N-(2,2,2-trifluoroethyl)-[1,1′-biphenyl]-3-carboxamide]
Response (0.1 μM (%)) [6]: <5%
Response (1.0 μM (%)) [7]: 33%
Response (10 μM (%)) [8]: 49%

COc1ccc(-c2cccc(C(=O)N(C)C)c2)cc1S(=O)(=O)Nc1cccc(NCCNC(=O)c2c(F)cccc2F)c1 [Example 45, 3′-(N-(3-((2-(2,6-difluorobenzamido)ethyl)amino)phenyl)sulfamoyl)-4′-methoxy-N,N-dimethyl-[1,1′-biphenyl]-3-carboxamide]
EC50 [4]: 115 nM
Emax [5]: 100%
Response (0.1 μM (%)) [6]: <5%
Response (1.0 μM (%)) [7]: 80%
Response (10 μM (%)) [8]: 98%

COc1ccccc1C(=O)NCCNc1cccc(NS(=O)(=O)c2cc(-c3cccc(C(=O)N(C)C)c3)ccc2C)c1 [Example 106, 3′-(N-(3-((2-(2-methoxybenzamido)ethyl)amino)phenyl)sulfamoyl)-N,N,4′-trimethyl-[1,1′-biphenyl]-3-carboxamide]
Response (0.1 μM (%)) [1]: <5%
Response (1.0 μM (%)) [2]: 27%
Response (10 μM (%)) [3]: 39%

COc1ccc(-c2cccc(C(=O)N3CCCCC3)c2)cc1S(=O)(=O)Nc1cccc(NCCNC(=O)c2ccccc2F)c1 [Example 90, 2-fluoro-N-(2-((3-(4-methoxy-3′-(piperidine-1-carbonyl)-[1,1′-biphenyl]-3-ylsulfonamido)phenyl)amino)ethyl)benzamide]
Response (0.1 μM (%)) [6]: 51%
Response (1.0 μM (%)) [7]: 68%
Response (10 μM (%)) [8]: 88%

COc1ccccc1C(=O)NCCNc1cccc(NS(=O)(=O)c2cc(-c3ccccc3OC)ccc2OC)c1 [Example 12, N-(2-((3-(2′,4-dimethoxy-[1,1′-biphenyl]-3-ylsulfonamide)phenyl)amino)ethyl)-2-methoxybenzamide]
Response (0.1 μM (%)) [1]: <5%
Response (1.0 μM (%)) [2]: 44%
Response (10 μM (%)) [3]: 73%

CCOc1ccc(-c2cccc(C(=O)N(C)C)c2)cc1S(=O)(=O)Nc1cccc(NCCNC(=O)c2ccccc2OC)c1 [Example 108, 4′-ethoxy-3′-(N-(3-((2-(2-methoxybenzamido)ethyl)amino)phenyl)sulfamoyl)-N,N-dimethyl-[1,1′-biphenyl]-3-carboxamide]
Response (0.1 μM (%)) [1]: 44%
Response (1.0 μM (%)) [2]: 81%
Response (10 μM (%)) [3]: 82%

COc1ccc(-c2cccc(C(=O)N3CCCCC3)c2)cc1S(=O)(=O)Nc1cccc(NCCNC(=O)c2cccc(F)c2)c1 [Example 92, 3-fluoro-N-(2-((3-(4-methoxy-3′-(piperidine-1-carbonyl)-[1,1′-biphenyl]-3-ylsulfonamido)phenyl)amino)ethyl)benzamide]
Response (0.1 μM (%)) [6]: 27%
Response (1.0 μM (%)) [7]: 92%
Response (10 μM (%)) [8]: 94%

COc1ccccc1C(=O)NCCNc1cccc(NS(=O)(=O)c2cc(-c3cccc(C(=O)N(C)C)c3)ccc2OC)c1 [Example 40, 4′-methoxy-3′-(N-(3-((2-(2-methoxybenzamido)ethyl)amino)phenyl)sulfamoyl)-N,N-dimethyl-[1,1′-biphenyl]-3-carboxamide]
EC50 [4]: 50 nM
Emax [5]: 74%
Response (0.1 μM (%)) [6]: 35%
Response (1.0 μM (%)) [7]: 74%
Response (10 μM (%)) [8]: 74%

COc1ccccc1C(=O)NCCNc1cccc(NS(=O)(=O)c2cc(-c3cccnc3)ccc2OC)c1 [Example 96, 2-methoxy-N-(2-((3-(2-methoxy-5-(pyridin-3-yl)phenylsulfonamido)phenyl)amino)ethyl)benzamide]
EC50 [4]: 268 nM
Emax [5]: 88%
Response (0.1 μM (%)) [6]: <5%
Response (1.0 μM (%)) [7]: 61%
Response (10 μM (%)) [8]: 88%

COc1ccc(-c2cccc(C(=O)N(C)C)c2)cc1S(=O)(=O)Nc1cccc(NCCNC(=O)c2ccc(Cl)s2)c1 [Example 61, 5-chloro-N-(2-((3-(3′-(dimethylcarbamoyl)-4-methoxy-[1,1′-biphenyl]-3-ylsulfonamido)phenyl)amino)ethyl)thiophene-2-carboxamide]
Response (0.1 μM (%)) [6]: <5%
Response (1.0 μM (%)) [7]: 18%
Response (10 μM (%)) [8]: 69%

COc1cc(C)c(-c2cccc(C(=O)N(C)C)c2)cc1S(=O)(=O)Nc1cccc(NCCNC(=O)c2cccnc2OC)c1 [Example 103, N-(2-((3-(3′-(dimethylcarbamoyl)-4-methoxy-6-methyl-[1,1′-biphenyl]-3-ylsulfonamido)phenyl)amino)ethyl)-2-methoxynicotinamide]
Response (0.1 μM (%)) [1]: 77%
Response (1.0 μM (%)) [2]: 93%
Response (10 μM (%)) [3]: 80%

COc1ccccc1C(=O)NCCNc1cccc(NS(=O)(=O)c2cc(-c3ccccc3Cl)ccc2OC)c1 [Example 10, N-(2-((3-(2′-chloro-4-methoxy-[1,1′-biphenyl]-3-ylsulfonamide)phenyl)amino)ethyl)-2-methoxybenzamide]
Response (0.1 μM (%)) [1]: <5%
Response (1.0 μM (%)) [2]: <5%
Response (10 μM (%)) [3]: 41%

COc1ccc(-c2cccc(C(=O)N(C)C)c2)cc1S(=O)(=O)Nc1cccc(NCCNC(=O)c2cccnc2Cl)c1 [Example 50, 2-chloro-N-(2-((3-(3′-(dimethylcarbamoyl)-4-methoxy-[1,1′-biphenyl]-3-ylsulfonamido)phenyl)amino)ethyl)nicotinamide]
Response (0.1 μM (%)) [6]: <5%
Response (1.0 μM (%)) [7]: 71%
Response (10 μM (%)) [8]: 76%

COc1ccc(-c2cccc(C(=O)N(C)C)c2)cc1S(=O)(=O)Nc1cccc(NCCNC(=O)c2cccc(C#N)c2)c1 [Example 72, 3′-(N-(3-((2-(3-cyanobenzamido)ethyl)amino)phenyl)sulfamoyl)-4′-methoxy-N,N-dimethyl-[1,1′-biphenyl]-3-carboxamide]
Response (0.1 μM (%)) [6]: <5%
Response (1.0 μM (%)) [7]: 16%
Response (10 μM (%)) [8]: 88%
